Assay results from patent publication US11249070B2, “Anti-cancer drug assessment method” (TOPPAN PRINTING CO., LTD., priority 2016, dated 2022).
Read-outs that look alike come from different tables or passages of the source.

How the values were obtained:
HT29 [1] = assay: CNT with doxorubicin, cell structures with or without semipermeable membrane (Example 9); assay type: cell-based, human; conditions: doxorubicin 10 μM, 72 hours
Description: The cell structures containing a cell layer containing cancer cells and a cell layer having a vascular network structure used herein were cell structures containing a cell layer in which two types of cells, i.e., NHDF and HUVEC, constituted a multilayer, and a cancer cell layer formed from HT29.
Separately, 2×10^4 HT29 was suspended in a suitable amount of culture medium to prepare a cancer cell suspension (step (a)). The HT29 used was previously fluorescently labeled (product number: PKH67GL, produced by SIGMA).
A cell structure 2 was obtained in the same manner as in the cell structure 1, except that a semipermeable membrane with a pore size of 0.4 μm was placed on a structure containing stromal cells, and a cancer cell suspension was seeded on the semipermeable membrane to form a cancer cell layer. […] In the cell structure 2, the cells constituting the cancer cell layer were completely separated from the cells constituting the stromal cell layer.
A cell structure 3 was obtained in the same manner as in the cell structure 1, except that a cancer cell suspension was first seeded in a Transwell cell culture insert to form a cancer cell layer, a semipermeable membrane with a pore size of 0.4 μm was placed on the cancer cell layer, and a stromal cell suspension was then seeded on the semipermeable membrane to form a stromal cell layer. […] In the cell structure 3, the cells constituting the cancer cell layer were completely separated from the cells constituting the stromal cell layer.
(§1) A cell structure 4 was obtained in the same manner as in the cell structure 2, except that a semipermeable membrane with a pore size of 8 μm was used. […] In the cell structure 4, the cells constituting the cancer cell layer and the cells constituting the stromal cell layer extended to be in contact with each other in the penetration part of the semipermeable membrane.
as §1, with “5” for “4”, “3,” for “2,”, “5,” for “4,”

HT29 [2] = assay: CNT with doxorubicin, vascular network in layer shape vs scattered (Example 3); assay type: cell-based, human; conditions: doxorubicin 10 μM, 72 hours
[3] = tested on: human colon cancer cell line HT29; assay: CNT (remaining viable cell rate) with doxorubicin, 2D cultures vs 3D cell structures (Example 2); assay type: cell-based; conditions: doxorubicin 10 μM; for CNT (%) Average value: 72 hours
Description: The anti-cancer drug to be assessed was doxorubicin (product number: 046-21523, produced by Wako Pure Chemical Industries, Ltd.).
After termination of the culture, cell structures in which a cancer cell layer was laminated on a layer having a vascular network structure were obtained.
Moreover, for comparison, in place of the above cell structures, structures were constructed by culturing cancer cells so as to form a single layer in a general culture container (2D method), and the resulting 2D cultures were similarly cultured in the presence of doxorubicin. A vascular network was not formed in the obtained 2D cultures even when cancer cells and vascular endothelial cells were made to coexist.
Next, a suitable amount of tris buffer solution (50 mM, pH: 7.4) was added to the Transwell cell culture insert, and the liquid component was then removed. This series of processes was repeated 3 times. […] Thereafter, all of the solution was collected, and transferred to a 1.5-mL collection tube to which 300 μL of 0.25% trypsin-EDTA solution (produced by Invitrogen) had been previously added. […] Thereafter, all of the solution was collected, and transferred to a 1.5-mL collection tube.

[4] = tested on: breast cancer cell line MCF-7; assay: CNT with doxorubicin, 2D vs 3D (Example 14); assay type: cell-based, human; conditions: for CNT (%) Average value: 72 hours
Description: The general cytotoxic anti-cancer drug to be assessed was doxorubicin (product number: 046-21523, produced by Wako Pure Chemical Industries, Ltd.).

[5] = tested on: gastric cancer cell line NCI-N87; assay: CNT with oxaliplatin, 2D vs 3D (Example 13); assay type: cell-based, human; conditions: for CNT (%): 72 hours, measured once
Experimental: (§2) Measurements were performed once for each culture condition.

HCT116 = conditions: bevacizumab 2 μg per well in the combination, 72 hours
Description: (§3) The cell structures containing cancer cells and having a vascular network structure used herein were the cell structures produced in Example 5, and the cell culture container, culture media, and bevacizumab used herein were also the same as those used in Example 5.
(§4) After the cell structures were each dispersed in the same manner as in Example 2, and the obtained dispersions were stained with trypan blue, the number of viable cancer cells was counted to calculate CNT (%).

HT29 [6] = conditions: bevacizumab 2 μg per well in the combination, 72 hours
Description: as §3, §4

HT29 [7] = conditions: oxaliplatin 100 μg/mL, bevacizumab 2 μg per well in combined use, 72 hours
Description: (§5) Furthermore, HT29 cells were used as the cancer cells.
(§6) After the cell structures were each dispersed in the same manner as in Example 2, and the obtained dispersions were stained with trypan blue, the number of viable cancer cells was counted to calculate CNT (%). Measurements were repeated three times for each culture condition.

[8] = tested on: lung cancer cell line NCI-H820; assay: CNT with oxaliplatin, 2D vs 3D (Example 12); assay type: cell-based, human; conditions: for CNT (%): 72 hours, measured once
Experimental: as §2

HT29 [9] = conditions: oxaliplatin 100 μg/mL, bevacizumab 2 μg per well in combined use
Experimental: as §5
Cell structures were produced in the same manner as in Example 5, except that HT29 cells were seeded in a Transwell cell culture insert in which a structure formed from NHDF and HUVEC was formed, centrifugation was performed to remove the liquid component, and the culture time in the CO2 incubator (37° C., 5% CO2) was changed to 24, 48, 72, or 96 hours.
as §6

HT29 [10] = assay: CNT with cetuximab and/or bevacizumab, 2D, spheroid, 3D (Example 4); assay type: cell-based, human; conditions: for CNT (%) Average value / CNT (%) Median value: cetuximab 1 mg/mL and/or bevacizumab 2 μg per well, 72 hours
Description: Moreover, for comparison, in place of the above cell structures, structures were produced by culturing cancer cells so as to form a single layer in a general culture container (2D method), and spheroids were produced by spheroid culture of a mixture of 2×10^6 NHDF, 3×10^4 HUVEC, and 2×10^4 HT29 (spheroid method).

[11] = regardless of the oxaliplatin concentration
[12] = Spheroid, oxaliplatin 100 μg/mL

Compound: COc1cccc2c1C(=O)c1c(O)c3c(c(O)c1C2=O)C[C@@](O)(C(=O)CO)C[C@@H]3O[C@H]1C[C@H](N)[C@H](O)[C@H](C)O1 [Doxorubicin, doxorubicin]
- CNT (%) Average value (HT29 [1]; Cell structure 1 (stromal cell layer - cancer cell layer)): 31.22%
- CNT (%) Average value (HT29 [1]; Cell structure 2 (stromal cell layer - semipermeable membrane (0.4 μm) - cancer cell layer)): 30.83%
- CNT (%) Average value (HT29 [1]; Cell structure 3 (cancer cell layer - semipermeable membrane (0.4 μm) - stromal cell layer)): 32.68%
- CNT (%) Average value (HT29 [1]; Cell structure 4 (stromal cell layer - semipermeable membrane (8 μm) - cancer cell layer)): 31.47%
- CNT (%) Average value (HT29 [1]; Cell structure 5 (cancer cell layer - semipermeable membrane (8 μm) - stromal cell layer)): 33.03%
- CNT (%) Average value (HT29 [2]; cell structure in which a vascular network structure is formed in a layer shape): 31.22%
- CNT (%) Average value (HT29 [2]; cell structure in which a vascular network structure is scattered in the entire structure): 31.06%
- CNT (%) Average value ([3]; 2D, HT29 2 × 10^4 only): 6.87%
- CNT (%) Average value ([3]; 2D, HUVEC 2 × 10^4 + HT29 2 × 10^4): 21.40%
- CNT (%) Average value ([3]; 2D, NHDF 2 × 10^4 + HT29 2 × 10^4): 13.20%
- effectiveness in 2D culture co-cultured with fibroblasts relative to 2D culture co-cultured with vascular endothelial cells ([3]; 2D): about two
- CNT of the cell structures relative to 2D culture ([3]; 3D cell structures vs 2D culture of only cancer cells and 2D culture of cancer cells and fibroblasts): at least 5 times
- CNT (%) Average value ([3]; 3D, NHDF 1 × 10^6 + HUVEC 3 × 10^4 + HT29 2 × 10^4): 28.22%
- CNT (%) Average value ([3]; 3D, NHDF 2 × 10^6 + HT29 2 × 10^4, no vascular network): 29.77%
- CNT (%) Average value ([3]; 3D, NHDF 2 × 10^6 + HUVEC 3 × 10^4 + HT29 2 × 10^4): 31.22%
- CNT (%) Average value ([4]; 2D, Doxorubicin 1 μM): 38.9%
- CNT (%) Average value ([4]; 2D, Doxorubicin 10 μM): 12.1%
- CNT (%) Average value ([4]; 3D, Doxorubicin 1 μM): 78.4%
- CNT (%) Average value ([4]; 3D, Doxorubicin 10 μM): 48.9%
- drug sensitivity, cell structures compared with 2D cultures ([4]; regardless of the doxorubicin concentration): drug sensitivity was lower

Compound: O=C1[O][Pt]2([NH][C@@H]3CCCC[C@H]3[NH]2)[O]C1=O [Oxaliplatin, oxaliplatin]
- CNT (%) ([5]; 2D, oxaliplatin 10 μg/mL): 22.0%
- CNT (%) ([5]; 2D, oxaliplatin 100 μg/mL): 10.3%
- CNT (%) ([5]; 3D, oxaliplatin 10 μg/mL): 45.9%
- CNT (%) ([5]; 3D, oxaliplatin 100 μg/mL): 17.7%
- drug sensitivity, cell structures compared with 2D cultures [5, 11]: drug sensitivity was lower
- CNT (%) Average value (HCT116; 2D, oxaliplatin 10 μg/mL): 23.8%
- CNT (%) Average value (HCT116; 2D, oxaliplatin 100 μg/mL): 11.3%
- CNT (%) Average value (HCT116; 3D, oxaliplatin 10 μg/mL): 54.1%
- CNT (%) Average value (HCT116; 3D, oxaliplatin 100 μg/mL): 35.6%
- CNT (%) Average value (HCT116; Spheroid, oxaliplatin 10 μg/mL): 51.8%
- CNT (%) Average value (HCT116; [12]): 18.8%
- CNT (%) Average value (HT29 [6]; 2D, oxaliplatin 10 μg/mL): 39.4%
- CNT (%) Average value (HT29 [6]; 2D, oxaliplatin 100 μg/mL): 16.0%
- CNT (%) Average value (HT29 [6]; 3D, oxaliplatin 10 μg/mL): 63.6%
- CNT (%) Average value (HT29 [6]; 3D, oxaliplatin 100 μg/mL): 31.9%
- CNT (%) Average value (HT29 [6]; Spheroid, oxaliplatin 10 μg/mL): 48.2%
- CNT (%) Average value (HT29 [6]; [12]): 22.3%
- CNT (%) Average value (HT29 [7]; HUVEC content 0.05 %, vascular network not formed): 30.3%
- CNT (%) Average value (HT29 [7]; HUVEC content 0.25 %, vascular network formed): 33.4%
- CNT (%) Average value (HT29 [7]; HUVEC content 0.5 %, vascular network formed): 35.7%
- CNT (%) Average value (HT29 [7]; HUVEC content 1.5 %, vascular network formed): 33.8%
- CNT (%) ([8]; 2D, oxaliplatin 1 μg/mL): 62.9%
- CNT (%) ([8]; 2D, oxaliplatin 10 μg/mL): 21.0%
- CNT (%) ([8]; 3D, oxaliplatin 1 μg/mL): 78.2%
- CNT (%) ([8]; 3D, oxaliplatin 10 μg/mL): 66.7%
- drug sensitivity, cell structures compared with 2D cultures [8, 11]: drug sensitivity was lower
- CNT (%) Average value (HT29 [9]; culture time 24 h after lamination of cancer cell layer, 72 hours): 36.0%
- CNT (%) Average value (HT29 [9]; culture time 48 h after lamination of cancer cell layer, 72 hours): 36.3%
- CNT (%) Average value (HT29 [9]; culture time 72 h after lamination of cancer cell layer): 37.0%
- CNT (%) Average value (HT29 [9]; culture time 96 h after lamination of cancer cell layer, 72 hours): 33.8%

Compound: bevacizumab
- CNT (HT29 [10]; 2D cultures and spheroids): about 100%
- CNT (%) Average value (HT29 [10]; 2D): 93.9%
- CNT (%) Median value (HT29 [10]; 2D): 99.3%
- CNT (%) Average value (HT29 [10]; 3D): 105.2%
- CNT (%) Median value (HT29 [10]; 3D): 112.7%
- CNT (%) Average value (HT29 [10]; Spheroid): 108.6%
- CNT (%) Median value (HT29 [10]; Spheroid): 113.8%
- CNT (HT29 [10]; cell structures of the present Example, 3D): about 100%
